# Measured values as given in publication PMC8997848, “How Cargo Identity Alters the Uptake of Cell-Penetrating Peptide (CPP)/Cargo Complexes: A Study on the Effect of Net Cargo Charge and Length” (Cells, 2022).
# How the values were obtained:
# HeLa cells [1] = assay: Live-cell fluorescent microscopy with line scans of intracellular peptide distribution; type: cell-based; settings: for intracellular distribution of fluorescence / cellular uptake seen by fluorescence microscopy: 10 μM peptide, 60 min, 37 °C; for intracellular distribution of fluorescence: images and line scans across individual cells (Figures 3, 4, S8); for cellular uptake seen by fluorescence microscopy: FITC filter (Figure 3)
# Experimental: One day prior to the experiment, HeLa cells were seeded in 8-chambered Falcon Culture Slides (Corning) at a density of 3 × 10^4 cells/mL. On the day of the experiment, cells were washed once with ECB before incubation with 10 μM peptide solution (500 μL/well) for 1 h at 37 °C. Following incubation, cells were washed twice with ECB then incubated with 8 μM Hoechst 3342 nuclei acid stain (ThermoFisher Scientific, Carlsbad, CA, USA) for 20 min at room temperature. Cellular fluorescence was visualized using a Leica DMi8 inverted microscope outfitted with a 40× objective (Leica N PLAN L, 0.55× correction). Images were acquired using the digital CMOS camera C11440 (Hamamatsu Photonics K.K., Japan) with a fixed exposure time of 500 ms for the FITC filter, 150 ms for the DAPI filter, and 20 ms for brightfield. The following excitation/emission filters (Chroma Tech. Corp, Bellows Falls, VT, USA) were used to image the device: fluorescein isothiocyanate-FITC (λex 440–520 nm and λem 497–557 nm) for capturing the signal from FAM and DAPI (λex 335–385 nm and λem 405–465 nm) for capturing the signal from the Hoescht stain. Image acquisition was controlled using the Leica Application Suite software (LAS X, version 3.7.4.23463), where all images were recorded using the same parameters. The imaging was followed by quantitative analysis, where a manual line scan region of interest (ROI) was drawn across the center of the cells to quantify their fluorescent signals. Random ROIs were also drawn in free space not containing cells to measure background noise for each image. The fluorescent values were normalized by subtracting the noise from the measured signal.
# HeLa cells [2] = settings: cited from earlier work
# From the text: In addition to improving the permeability and stability of the CPPs themselves, there is significant interest in utilizing known CPPs to deliver bioactive cargoes, such as nanoparticles, therapeutics, or biosensors, to cells. CPPs have found great success of late as delivery vehicles for peptide-based therapeutics, such as PROTACs (proteolysis targeting chimeras), which facilitate the degradation of “undruggable” proteins by selectively ubiquitinating the target protein for proteasome-mediated degradation. […] With the majority of well characterized CPPs being unstructured, and considering the differences in uptake levels, cytotoxicity, and intracellular stability that has been observed when comparing unstructured and structured CPPs, it was important to compare the effects of net cargo charge and length on both unstructured (nona-arginine, R1) and structured (RWRWR, H1) CPPs. To examine the ...
# HeLa cells [3] = assay: Quantification of CPP and CPP/cargo uptake by fluorometry of FAM signal in cell lysate; type: cell-based; settings: for time dependence of uptake (single factor ANOVA): 10 µM peptide, 10, 20, 40, 60, 100, 120 min, triplicate (Tables S1, S6); for time-dependent analysis of peptide uptake (in words): 10-120 min, triplicate (Figures S5, S7); for uptake of CPP/cargo complex compared to the H1 CPP alone (in words) / effect of net cargo length and arginine position on cellular uptake (one-way ANOVA): 10 µM; for uptake of CPP/cargo complex compared to the H1 CPP alone (in words): uptake normalized against H1, triplicate (Figure 1A); for effect of net cargo length and arginine position on cellular uptake (one-way ANOVA): 1 h, cargoes of +2 charge, 4 or 8 residues, triplicate (Figure 1B, Table S3)
# Experimental: The quantification of peptide uptake was performed using a protocol previously utilized by Safa et al. and Vaithiyanathan et al.. Three days prior to the experiment, HeLa cells were seeded at a density of 1 × 10^4 cells/mL in 12 well plates. Prior to experiments, peptides were reconstituted in sodium phosphate buffer (2.26 mM NaH2PO4·H2O and 8.43 mM Na2HPO4·7H2O) and the peptide concentration was determined using a NanoDrop at the wavelength of 492 nm using the UV-vis function. On the day of the experiment, peptides were diluted to the desired final concentration with extracellular buffer, ECB (5.036 mM HEPES pH 7.4, 136.89 mM NaCl, 2.68 mM KCl, 2.066 mM MgCl2·6H2O, 1.8 mM, CaCl2·2H2O, and 5.55 mM glucose). Cells were washed once with PBS followed by peptide incubation (500 μL/well) at 37 °C. Plates were wrapped in aluminum foil during incubation to avoid deactivating the FAM tag on the peptide. Following the incubation, the peptide solutions were removed, and cells were washed twice with ECB. Cells were then trypsinized (250 μL/well) for 10 min at room temperature. The cells were resuspended in ECB (1 mL/well) and transferred to microcentrifuge tubes. The samples were centrifuged at 1800 rcf for 2.5 min. The supernatant was removed, and the isolated cells were lysed with 0.1 M NaOH (250 μL/tube). Samples were centrifuged again at 14,000 rcf for 5 min to remove any remaining protein bound to the membranes before transferring 150 μL of clarified lysate to a 96 well plate. Fluorometry (Perkin Elmer (Waltham, MA, USA) Wallac 1420 VICTOR2 multilabel HTS counter) was used to quantify the signal resulting from the FAM tag using an excitation filter of 490 nm and an emission filter of 535 nm. For each experiment, a no peptide control (cells incubated with ECB only) was performed. To measure the background signal of each peptide, the peptide solutions used in each experiment were analyzed by fluorometry to normalize the fluorescent signal for each sample. Signals were normalized using Equation (1):Normalized Fluorescence = 1000 × (F − C)/(P − B)(1) where F denotes the fluorescent signal of cells incubated with peptide, C denotes the fluorescent signal of cells incubated with no peptide, P denotes the average fluorescent signal of the peptide in suspension, and B denotes the average fluorescent signal of the ECB. Reported data for each experiment is the average of triplicate samples. Statistical analysis was carried out using JMP Pro 16 software (SAS Institute).
# HeLa cells [4] = assay: alamarBlue cell viability assay; type: cell-based; settings: 37 °C, 4 h (2 h in method and Figure 2), then alamarBlue 4 h, normalized to no peptide control, triplicate; for effect on cellular viability at 5 µM: HeLa cells, 5 µM peptide; for decrease in cellular viability: HeLa cells, 10, 20, and 30 μM peptide
# Experimental: Two days prior to the experiment, HeLa cells were plated at a density of 1 × 10^5 cells/well in a 96 well plate. Cells were washed once with PBS and incubated with peptide solutions for 2 h at 37 °C. Following this incubation period, cells were washed with ECB and incubated with a mixture of 10 μL alamarBlue Viability Reagent (ThermoFisher Scientific, Carlsbad, CA, USA) in 90 μL serum-free media for 4 h at 37 °C. The fluorescent signal of alamarBlue was measured using fluorometry with an excitation filter of 532 nm and an emission filter of […]. A no peptide control was also performed to normalize the fluorescent signals. Signals were normalized using Equation (2):Normalized Cell Viability = F/C(2) where F denotes the fluorescent signal of cells incubated with peptide and C denotes the fluorescent signal of cells incubated with no peptide. The reported data are the average of triplicate samples.
# [5] = cited from earlier work
# From the text: With the majority of well characterized CPPs being unstructured, and considering the differences in uptake levels, cytotoxicity, and intracellular stability that has been observed when comparing unstructured and structured CPPs, it was important to compare the effects of net cargo charge and length on both unstructured (nona-arginine, R1) and structured (RWRWR, H1) CPPs. To examine the ...
# [6] = 10 µM peptide, 60 min, 37 °C, FAM fluorometry of lysate, triplicate (Figure 5)
# [7] = 10 µM peptide, FAM fluorometry of lysate
substance,measurement,setting,value
"FAM-RRRRRRRRR [R1, unstructured nona-arginine CPP, FAM labelled; commercial peptide ARG from AnaSpec, reference compound]",intracellular distribution of fluorescence,HeLa cells [1],punctate regions
same,uptake efficiency compared to the RWRWR (H1) CPP,HeLa cells [2],2 fold
"FAM-RRRRRRRRR-GGGGGGGG [R4, nona-arginine CPP with 8-residue neutral cargo]",decrease in cellular internalization compared to R1 CPP,HeLa cells [3]; [6],50%
"FAM-RRRRRRRRR-GRGR [R2, nona-arginine CPP with 4-residue cargo GRGR, net charge +2]",time dependence of uptake (single factor ANOVA),HeLa cells [3],time-dependent
same,time-dependent analysis of peptide uptake (in words),HeLa cells [3]; [7],greater uptake that the R1 CPP
same,"increase in uptake compared to counterpart with H1 CPP (H2 and H5, respectively)",HeLa cells [3]; [6],140%
same,increase in uptake compared to the R1 CPP,HeLa cells [3]; [6],29%
"FAM-RRRRRRRRR-GRGRGRGR [R3, nona-arginine CPP with 8-residue cargo, net charge +4]",time dependence of uptake (single factor ANOVA),HeLa cells [3],time-dependent
same,time-dependent analysis of peptide uptake (in words),HeLa cells [3]; [7],greater uptake that the R1 CPP
same,"increase in uptake compared to counterpart with H1 CPP (H2 and H5, respectively)",HeLa cells [3]; [6],140%
same,increase in uptake compared to the R1 CPP,HeLa cells [3]; [6],103%
"RWVRVpGO(FAM)WIRQ [H1, RWRWR β-hairpin CPP, FAM on ornithine side chain]",time dependence of uptake (single factor ANOVA),HeLa cells [3],demonstrate time dependence
same,time-dependent analysis of peptide uptake (in words),HeLa cells [3]; [7],greatest penetration
same,effect on cellular viability at 5 µM,HeLa cells [4],did not result in a decrease in cellular viability
same,decrease in cellular viability,HeLa cells [4],~ 5%
same,cellular uptake seen by fluorescence microscopy,HeLa cells [1],successful cellular uptake
same,intracellular distribution of fluorescence,HeLa cells [1],evenly distributed throughout the cell
same,time needed for uptake / sufficient internalization,HeLa cells [2]; HeLa cells,< 10 min
same,increased intracellular stability compared to nona-arginine CPP,[5],20 fold
"RWVRVpGO(FAM)WIRQ-GEGE [H4, H1 CPP with 4-residue cargo GEGE, net charge −2]",time dependence of uptake (single factor ANOVA),HeLa cells [3],demonstrate time dependence
same,uptake of CPP/cargo complex compared to the H1 CPP alone (in words),"HeLa cells [3]; 60 min, 37 °C",diminished uptake
"RWVRVpGO(FAM)WIRQ-GEGEGEGE [H7, H1 CPP with 8-residue cargo, net charge −4]",time dependence of uptake (single factor ANOVA),HeLa cells [3],no time dependence
same,uptake of CPP/cargo complex compared to the H1 CPP alone (in words),"HeLa cells [3]; 60 min, 37 °C",diminished uptake
same,cellular uptake seen by fluorescence microscopy,HeLa cells [1],impermeability
"RWVRVpGO(FAM)WIRQ-GGGG [H3, H1 CPP with 4-residue cargo GGGG, net charge 0]",time dependence of uptake (single factor ANOVA),HeLa cells [3],no time dependence
same,uptake of CPP/cargo complex compared to the H1 CPP alone (in words),"HeLa cells [3]; 60 min, 37 °C",diminished uptake
"RWVRVpGO(FAM)WIRQ-GGGGGGGG [H6, H1 CPP with 8-residue cargo, net charge 0]",time dependence of uptake (single factor ANOVA),HeLa cells [3],demonstrate time dependence
same,uptake of CPP/cargo complex compared to the H1 CPP alone (in words),"HeLa cells [3]; 60 min, 37 °C",diminished uptake
"RWVRVpGO(FAM)WIRQ-GGGGGRGR [H8, H1 CPP with 8-residue +2 cargo, arginines closer to the C-terminus]",effect of net cargo length and arginine position on cellular uptake (one-way ANOVA),HeLa cells [3],no significant difference in cellular uptake
"RWVRVpGO(FAM)WIRQ-GRGR [H2, H1 CPP with 4-residue cargo GRGR, net charge +2]",time dependence of uptake (single factor ANOVA),HeLa cells [3],demonstrate time dependence
same,time-dependent analysis of peptide uptake (in words),HeLa cells [3]; [7],greatest penetration
same,effect of net cargo length and arginine position on cellular uptake (one-way ANOVA),HeLa cells [3],no significant difference in cellular uptake
same,effect on cellular viability at 5 µM,HeLa cells [4],did not result in a decrease in cellular viability
same,decrease in cellular viability,HeLa cells [4],~ 5%
"RWVRVpGO(FAM)WIRQ-GRGRGGGG [H9, H1 CPP with 8-residue +2 cargo, arginines closer to the N-terminus]",effect of net cargo length and arginine position on cellular uptake (one-way ANOVA),HeLa cells [3],no significant difference in cellular uptake
"RWVRVpGO(FAM)WIRQ-GRGRGRGR [H5, H1 CPP with 8-residue cargo, net charge +4]",increase in CPP/cargo uptake on increasing arginine residues from 2 (H2) to 4 (H5),"HeLa cells [3]; 10 µM peptide in ECB, 60 min, 37 °C, trypsinized, lysed in 0.1 M NaOH, FAM fluorometry ex 490/em 535 nm, average of triplicate, compared to H2",58%
same,time dependence of uptake (single factor ANOVA),HeLa cells [3],demonstrate time dependence
same,time-dependent analysis of peptide uptake (in words),HeLa cells [3]; [7],greatest penetration
same,effect on cellular viability at 5 µM,HeLa cells [4],did not result in a decrease in cellular viability
same,decrease in cellular viability,HeLa cells [4],~ 5%
same,cellular uptake seen by fluorescence microscopy,HeLa cells [1],successful cellular uptake
same,intracellular distribution of fluorescence,HeLa cells [1],punctate regions of increased fluorescence
same,cell-to-cell heterogeneity of uptake compared to cells incubated with H1,"HeLa cells [1]; 10 μM, average fluorescence intensity in individual cells (Figure S6)",substantially higher heterogeneity
same,average uptake from single-cell fluorescence intensity compared to H1,"HeLa cells [1]; 10 μM, line scans across 20 single cells, normalized against background (Figure S6)",substantially higher average uptake
